In US20050260630A1, “Rapid methods for detecting methylation of a nucleic acid molecule” (Michigan State University, priority 2004, published 2005):

How the values were obtained:
H4IIE rat hepatoma cells = test: Global DNA methylation by SssI methylase assay in treated H4IIE cells; conditions: 72 hour incubation
[1] = test system: genomic DNA from liver cells (GC-rich regions, 5′CCGG 3′ sites); test: Arbitrarily primed PCR and capillary electrophoresis methylation analysis of liver DNA of phenobarbital-treated C57BL/6 mice (RsaI/HpaII digest); conditions: 0.05% (w/v) in drinking water for 2 weeks
[2] = test system: GC-rich regions of liver genomic DNA; test: GC-rich region methylation following phenobarbital treatment of B6C3F1 mice (AP-PCR and capillary electrophoresis, RsaI/HpaII and RsaI/MspI digests); type: in vivo; conditions: B6C3F1 mouse liver
[3] = Systolic blood pressure of DOCA-treated uninephrectomized rats; type: in vivo, rat; conditions: male Sprague-Dawley rats, uninephrectomy, pellet 200 mg/kg, water with 1.0% NaCl and 0.2% KCl; at 28 days (control 112 mmHg)
Method: Hypertensive rats were created by subjecting male Sprague-Dawley rats, weighing […] uninephrectomy and implanting them with a deoxycorticosterone acetate (DOCA) pellet (200 mg/kg). […] Aortas were removed 28 days after implantation of the DOCA pellet.

[4] = H4IIE cells treated with cytolethal concentrations
[5] = H4IIE cells treated with non-cytolethal concentrations
[6] = HpaII digest, 0.05% (w/v) in drinking water, 2 weeks
[7] = MspI digest, 0.05% (w/v) in drinking water, 2 weeks
[8] = Total of HpaII and MspI digests, 0.05%

Structure (SMILES): O=c1[nH]cc(F)c(=O)[nH]1 [5-FU, 5-fluorouracil]
- global DNA methylation status (H4IIE rat hepatoma cells; [4]): decrease in global DNA methylation status

Structure (SMILES): Nc1ncn([C@H]2C[C@H](O)[C@@H](CO)O2)c(=O)n1 [dAzaC, 5-aza-2′deoxycytidine]
- global DNA methylation status (H4IIE rat hepatoma cells; [5]): decrease in global DNA methylation status

Structure (SMILES): CCC1(c2ccccc2)C(=O)NC(=O)NC1=O [phenobarbital]
- sites in murine liver DNA where treatment has affected methylation status ([1]; C57BL/6 mice): 10 sites
- Sites of Hypermethylation ([1]; liver DNA of male C57BL/6 mice, t-test α=0.05): 8 sites
- Sites of Hypermethylation [2, 6]: 10 sites
- Sites of Hypomethylation [2, 6]: 5 sites
- Sites of “New” Methylation [2, 6]: 11 sites
- TOTAL altered sites [2, 6]: 26 sites
- Sites of Hypermethylation [2, 7]: 8 sites
- Sites of Hypomethylation [2, 7]: 8 sites
- Sites of “New” Methylation [2, 7]: 11 sites
- TOTAL altered sites [2, 7]: 27 sites
- Sites of Hypermethylation [2, 8]: 18 sites
- Sites of Hypomethylation [2, 8]: 13 sites
- Sites of “New” Methylation [2, 8]: 22 sites
- TOTAL altered sites [2, 8]: 53 sites

Structure (SMILES): CC(=O)OCC(=O)[C@H]1CC[C@H]2[C@@H]3CCC4=CC(=O)CC[C@]4(C)[C@H]3CC[C@]12C [DOCA, deoxycorticosterone acetate]
- systolic blood pressure [3]: 180 mmHg

Structure (SMILES): CN[C@@H]1C[C@H]2O[C@@](C)([C@@H]1OC)n1c3ccccc3c3c4c(c5c6ccccc6n2c5c31)C(=O)NC4 [staurosporine, Staurosporine]
- global DNA methylation status (H4IIE rat hepatoma cells; [4]): decrease in global DNA methylation status
- global DNA methylation status (H4IIE rat hepatoma cells; [5]): decrease in global DNA methylation status
